Where “and” joins values, the source holds several entries; their conditions need not be identical. Identical values can stand only once.
Legend:
wt and KCa3.1−/− mice = experiment: Telemetric blood pressure in normotensive mice; format: in vivo, mouse; conditions: for MAP over 24 h: mean ± SEM; for lowering of mean arterial pressure (MAP): over 24 h
[1] = system: wt mice infused with Ang-II; experiment: Telemetric blood pressure in angiotensin-II-induced hypertension; format: in vivo, mouse; conditions: 30 mg/kg i.p.
mice [2] = format: in vivo, mouse; conditions: 100 mg/kg i.p., 15 min, 30 min and 1 hour
Kv11.1 (HERG) = Kv11.1 (HERG) (Homo sapiens, UniProt Q12809)
hKCa1.1 = hKCa1.1 (Homo sapiens, UniProt Q12791); experiment: Selectivity patch-clamp, KCa1.1 currents; format: cell-based; conditions: 25 μM; 1 μM free Ca2+
mice [3] = experiment: Maximal electroshock; format: in vivo, mouse; conditions: 100 mg/kg i.p., 15 min, 30 min and 1 hour
Pharmacokinetics in rats = format: in vivo; conditions: rat; for peak total plasma concentration: 2 h
rKv4.2 = target: T1, rKv4.2 (Rattus norvegicus, UniProt Q63881); experiment: Selectivity patch-clamp, Kv4.2 currents; format: cell-based; conditions: 25 μM
T1 sequence (Q63881 1-630): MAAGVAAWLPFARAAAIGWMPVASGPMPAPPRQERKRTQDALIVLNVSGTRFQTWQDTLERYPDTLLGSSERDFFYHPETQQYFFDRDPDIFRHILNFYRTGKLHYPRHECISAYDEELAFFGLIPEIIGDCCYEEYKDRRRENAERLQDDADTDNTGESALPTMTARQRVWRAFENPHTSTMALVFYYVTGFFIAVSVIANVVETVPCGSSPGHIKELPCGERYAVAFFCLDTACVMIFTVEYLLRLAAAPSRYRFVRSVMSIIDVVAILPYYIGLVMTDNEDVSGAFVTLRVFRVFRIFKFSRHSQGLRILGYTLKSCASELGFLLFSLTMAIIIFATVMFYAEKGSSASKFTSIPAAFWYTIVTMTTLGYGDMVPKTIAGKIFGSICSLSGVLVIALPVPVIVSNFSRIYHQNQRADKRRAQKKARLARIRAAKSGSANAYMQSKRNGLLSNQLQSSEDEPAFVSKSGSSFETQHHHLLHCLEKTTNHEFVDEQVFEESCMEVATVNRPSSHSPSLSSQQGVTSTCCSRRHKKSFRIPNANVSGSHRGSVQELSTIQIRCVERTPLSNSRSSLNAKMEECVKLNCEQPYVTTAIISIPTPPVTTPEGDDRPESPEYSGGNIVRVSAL

Jurkat E61 and MEL cells = experiment: Cytotoxicity assay; format: cell-based; conditions: concentrations up to 100 μM; 48 h
[4] = Plasma protein binding by ultrafiltration; format: in vitro ADME, rat
mKv1.1 = mKv1.1 (Mus musculus, UniProt P16388); experiment: Selectivity patch-clamp, Kv1.1 currents; format: cell-based; conditions: 25 μM
Sequence of mKv1.1 (P16388 whole entry): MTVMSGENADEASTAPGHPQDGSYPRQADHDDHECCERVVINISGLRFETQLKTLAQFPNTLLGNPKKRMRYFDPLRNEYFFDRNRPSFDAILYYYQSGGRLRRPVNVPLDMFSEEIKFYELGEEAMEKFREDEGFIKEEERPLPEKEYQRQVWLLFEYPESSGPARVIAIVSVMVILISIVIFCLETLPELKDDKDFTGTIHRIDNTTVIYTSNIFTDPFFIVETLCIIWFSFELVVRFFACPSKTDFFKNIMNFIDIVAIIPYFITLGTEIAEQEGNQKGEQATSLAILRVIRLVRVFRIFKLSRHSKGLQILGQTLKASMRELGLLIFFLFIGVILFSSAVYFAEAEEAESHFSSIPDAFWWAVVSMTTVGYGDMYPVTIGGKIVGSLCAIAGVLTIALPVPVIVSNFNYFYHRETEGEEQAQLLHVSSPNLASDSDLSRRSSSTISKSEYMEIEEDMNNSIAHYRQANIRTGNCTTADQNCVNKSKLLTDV

mKv1.3 = mKv1.3 (Mus musculus, UniProt P16390); experiment: Selectivity patch-clamp, Kv1.3 currents; format: cell-based
Sequence of mKv1.3 (P16390 whole entry): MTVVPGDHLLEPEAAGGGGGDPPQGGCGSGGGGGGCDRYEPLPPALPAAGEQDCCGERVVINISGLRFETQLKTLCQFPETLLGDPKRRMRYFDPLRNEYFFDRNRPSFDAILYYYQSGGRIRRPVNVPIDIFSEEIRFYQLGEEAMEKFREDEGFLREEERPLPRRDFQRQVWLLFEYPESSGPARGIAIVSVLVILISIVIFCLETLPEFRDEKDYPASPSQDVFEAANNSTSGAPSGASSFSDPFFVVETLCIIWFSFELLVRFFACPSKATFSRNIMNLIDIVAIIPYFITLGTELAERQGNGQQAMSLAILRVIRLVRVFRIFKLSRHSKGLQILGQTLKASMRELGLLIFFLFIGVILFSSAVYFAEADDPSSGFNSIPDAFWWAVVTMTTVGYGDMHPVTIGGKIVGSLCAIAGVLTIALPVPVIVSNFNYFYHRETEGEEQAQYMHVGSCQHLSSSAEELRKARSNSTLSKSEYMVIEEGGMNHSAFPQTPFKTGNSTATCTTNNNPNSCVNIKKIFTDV

K2P2.1 (TREK-1) = target: T2, K2P2.1 (TREK-1) (Mus musculus, UniProt P97438); experiment: Selectivity patch-clamp, endothelial cell TREK-1 currents; format: cell-based; conditions: 25 μM
T2 sequence (P97438 1-426): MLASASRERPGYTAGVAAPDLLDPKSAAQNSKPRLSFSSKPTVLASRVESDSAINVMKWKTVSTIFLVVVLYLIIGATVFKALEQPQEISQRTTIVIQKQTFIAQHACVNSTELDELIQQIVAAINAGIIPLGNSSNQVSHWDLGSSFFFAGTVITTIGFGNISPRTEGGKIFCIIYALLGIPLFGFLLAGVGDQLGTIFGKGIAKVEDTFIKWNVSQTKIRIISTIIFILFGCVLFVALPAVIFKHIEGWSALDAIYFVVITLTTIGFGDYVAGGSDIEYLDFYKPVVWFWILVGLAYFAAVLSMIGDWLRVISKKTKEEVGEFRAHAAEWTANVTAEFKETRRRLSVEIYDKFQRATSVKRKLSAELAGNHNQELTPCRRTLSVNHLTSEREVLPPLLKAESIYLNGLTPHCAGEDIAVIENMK

murine carotid artery = experiment: Pressure myography, EDHF-type dilation of carotid artery; set-up: species or system mouse
logP = format: physicochemical
Cav1.2 = Cav1.2 (Oryctolagus cuniculus, UniProt P15381); experiment: Selectivity patch-clamp, Cav1.2 currents; format: cell-based
Sequence of Cav1.2 (P15381 whole entry): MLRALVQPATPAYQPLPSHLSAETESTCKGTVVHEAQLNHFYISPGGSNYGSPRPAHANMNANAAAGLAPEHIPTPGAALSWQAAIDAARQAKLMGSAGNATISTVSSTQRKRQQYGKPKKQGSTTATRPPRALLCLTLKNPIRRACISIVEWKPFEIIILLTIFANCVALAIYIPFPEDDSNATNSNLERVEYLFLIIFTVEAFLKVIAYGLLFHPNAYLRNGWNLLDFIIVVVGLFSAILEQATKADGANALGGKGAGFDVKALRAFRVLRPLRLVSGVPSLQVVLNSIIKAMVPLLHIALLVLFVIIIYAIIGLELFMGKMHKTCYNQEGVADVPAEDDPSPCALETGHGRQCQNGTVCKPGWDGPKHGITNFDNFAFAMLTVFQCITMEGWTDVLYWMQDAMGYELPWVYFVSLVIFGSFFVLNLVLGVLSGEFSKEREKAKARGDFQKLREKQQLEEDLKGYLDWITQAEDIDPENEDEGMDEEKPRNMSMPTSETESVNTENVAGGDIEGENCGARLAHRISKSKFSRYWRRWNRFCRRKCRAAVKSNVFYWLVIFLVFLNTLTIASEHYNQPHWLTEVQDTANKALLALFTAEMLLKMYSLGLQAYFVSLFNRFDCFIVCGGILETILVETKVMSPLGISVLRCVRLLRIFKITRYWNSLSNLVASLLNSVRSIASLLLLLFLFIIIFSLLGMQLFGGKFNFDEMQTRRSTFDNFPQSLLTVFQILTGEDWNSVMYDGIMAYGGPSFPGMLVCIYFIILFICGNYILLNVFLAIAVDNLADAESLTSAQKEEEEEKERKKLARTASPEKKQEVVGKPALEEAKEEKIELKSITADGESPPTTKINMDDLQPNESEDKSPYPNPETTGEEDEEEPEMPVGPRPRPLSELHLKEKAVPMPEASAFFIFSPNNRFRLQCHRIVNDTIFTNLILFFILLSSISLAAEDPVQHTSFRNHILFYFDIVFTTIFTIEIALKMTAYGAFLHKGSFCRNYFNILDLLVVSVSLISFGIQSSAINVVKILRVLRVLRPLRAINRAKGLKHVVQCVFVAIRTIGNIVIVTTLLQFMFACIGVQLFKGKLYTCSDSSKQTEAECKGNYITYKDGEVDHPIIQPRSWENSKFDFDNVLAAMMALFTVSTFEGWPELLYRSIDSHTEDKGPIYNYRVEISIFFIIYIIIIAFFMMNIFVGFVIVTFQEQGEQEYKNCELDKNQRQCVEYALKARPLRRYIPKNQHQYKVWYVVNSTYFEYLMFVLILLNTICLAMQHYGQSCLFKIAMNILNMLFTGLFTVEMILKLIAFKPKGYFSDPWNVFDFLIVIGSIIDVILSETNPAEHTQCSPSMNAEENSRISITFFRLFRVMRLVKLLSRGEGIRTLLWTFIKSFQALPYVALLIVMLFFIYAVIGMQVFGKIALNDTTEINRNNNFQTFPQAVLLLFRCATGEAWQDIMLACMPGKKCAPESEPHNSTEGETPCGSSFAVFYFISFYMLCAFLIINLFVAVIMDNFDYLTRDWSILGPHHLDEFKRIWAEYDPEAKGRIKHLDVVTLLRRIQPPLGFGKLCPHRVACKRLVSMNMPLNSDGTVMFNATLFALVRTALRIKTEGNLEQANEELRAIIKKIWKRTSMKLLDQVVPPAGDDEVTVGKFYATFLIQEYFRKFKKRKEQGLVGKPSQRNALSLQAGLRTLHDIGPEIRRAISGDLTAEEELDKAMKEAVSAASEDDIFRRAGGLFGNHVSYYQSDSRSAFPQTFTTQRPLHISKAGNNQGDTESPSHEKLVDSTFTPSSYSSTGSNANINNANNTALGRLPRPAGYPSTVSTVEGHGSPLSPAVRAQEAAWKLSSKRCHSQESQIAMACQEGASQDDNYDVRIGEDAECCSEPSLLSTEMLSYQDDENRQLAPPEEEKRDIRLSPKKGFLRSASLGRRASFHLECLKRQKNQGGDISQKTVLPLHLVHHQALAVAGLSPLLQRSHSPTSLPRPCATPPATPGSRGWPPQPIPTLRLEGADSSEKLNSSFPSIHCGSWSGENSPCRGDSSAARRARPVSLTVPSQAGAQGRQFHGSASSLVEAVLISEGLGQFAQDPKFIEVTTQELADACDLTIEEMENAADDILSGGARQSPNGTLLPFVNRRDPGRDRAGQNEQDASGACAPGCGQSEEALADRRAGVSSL

hKv1.5 = hKv1.5 (Homo sapiens, UniProt P22460); experiment: Selectivity patch-clamp, Kv1.5 currents; format: cell-based; conditions: 25 μM
hNav1.4 = hNav1.4 (Homo sapiens, UniProt P35499); experiment: Selectivity patch-clamp, Nav1.4 currents; format: cell-based; conditions: 25 μM
Sequence of hNav1.4 (P35499 whole entry): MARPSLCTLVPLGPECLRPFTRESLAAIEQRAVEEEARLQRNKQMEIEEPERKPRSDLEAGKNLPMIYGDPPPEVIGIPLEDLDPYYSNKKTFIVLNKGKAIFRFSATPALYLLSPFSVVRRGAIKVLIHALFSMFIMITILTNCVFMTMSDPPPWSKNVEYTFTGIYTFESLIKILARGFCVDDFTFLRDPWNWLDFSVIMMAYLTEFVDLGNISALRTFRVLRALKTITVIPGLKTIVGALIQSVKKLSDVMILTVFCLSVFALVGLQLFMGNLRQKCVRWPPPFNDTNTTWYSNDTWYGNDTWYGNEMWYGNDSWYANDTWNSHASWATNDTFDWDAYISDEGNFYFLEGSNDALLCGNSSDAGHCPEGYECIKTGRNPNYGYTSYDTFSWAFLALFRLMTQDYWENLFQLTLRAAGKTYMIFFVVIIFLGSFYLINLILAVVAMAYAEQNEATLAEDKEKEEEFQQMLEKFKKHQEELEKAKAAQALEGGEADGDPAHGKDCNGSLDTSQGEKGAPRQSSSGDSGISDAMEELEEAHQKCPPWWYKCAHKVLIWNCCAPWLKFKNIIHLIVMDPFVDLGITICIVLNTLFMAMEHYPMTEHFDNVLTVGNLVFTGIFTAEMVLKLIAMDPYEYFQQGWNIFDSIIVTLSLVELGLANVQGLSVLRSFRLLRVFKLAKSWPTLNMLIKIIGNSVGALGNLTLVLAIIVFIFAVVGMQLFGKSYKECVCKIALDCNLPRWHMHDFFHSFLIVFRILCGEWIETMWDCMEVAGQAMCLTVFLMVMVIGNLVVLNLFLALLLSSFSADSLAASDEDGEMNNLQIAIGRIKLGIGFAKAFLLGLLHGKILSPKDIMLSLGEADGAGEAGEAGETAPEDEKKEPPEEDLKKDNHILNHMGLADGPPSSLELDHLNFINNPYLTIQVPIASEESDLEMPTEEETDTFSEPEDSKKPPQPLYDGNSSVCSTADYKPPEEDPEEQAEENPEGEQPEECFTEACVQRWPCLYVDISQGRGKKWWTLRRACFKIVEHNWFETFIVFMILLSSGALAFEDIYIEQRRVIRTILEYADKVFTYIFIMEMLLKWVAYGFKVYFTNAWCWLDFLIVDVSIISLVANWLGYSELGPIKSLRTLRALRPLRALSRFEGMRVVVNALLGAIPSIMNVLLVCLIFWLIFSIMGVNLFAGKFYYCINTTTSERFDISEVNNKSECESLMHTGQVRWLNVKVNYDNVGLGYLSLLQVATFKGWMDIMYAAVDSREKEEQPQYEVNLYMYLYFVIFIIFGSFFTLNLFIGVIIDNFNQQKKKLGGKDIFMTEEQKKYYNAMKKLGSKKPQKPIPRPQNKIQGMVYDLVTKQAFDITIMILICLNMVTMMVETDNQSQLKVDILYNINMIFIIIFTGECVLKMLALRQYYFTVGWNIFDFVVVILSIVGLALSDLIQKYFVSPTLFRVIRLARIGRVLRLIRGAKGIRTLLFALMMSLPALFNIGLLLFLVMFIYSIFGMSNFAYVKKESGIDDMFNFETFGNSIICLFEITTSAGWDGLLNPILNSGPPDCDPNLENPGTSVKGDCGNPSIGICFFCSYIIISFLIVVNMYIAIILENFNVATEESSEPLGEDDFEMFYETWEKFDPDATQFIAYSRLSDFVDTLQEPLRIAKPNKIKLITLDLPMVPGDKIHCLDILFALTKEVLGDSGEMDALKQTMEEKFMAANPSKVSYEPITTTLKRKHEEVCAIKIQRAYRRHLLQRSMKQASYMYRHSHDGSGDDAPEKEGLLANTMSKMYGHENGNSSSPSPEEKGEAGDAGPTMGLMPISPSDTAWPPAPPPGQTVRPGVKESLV

[5] = target: glutamate site of NMDA receptors (Rattus norvegicus, UniProt Q00959); experiment: NMDA receptor radioligand binding assay
[6] = male, Sprague-Dawley, plasma, iv, 10 mg/kg

In the case of Nc1nc2c(ccc3ccccc32)s1 [SKA-31, naphtho[1,2-d]thiazol-2-ylamine], the “MAP over 24 h” value (wt and KCa3.1−/− mice; KCa3.1−/− mice, 10 mg/kg i.p.) was 104.3 ± 1.5 mmHg, the “MAP over 24 h” value (wt and KCa3.1−/− mice; KCa3.1−/− mice, 30 mg/kg i.p.) was 102.9 ± 0.6 mmHg and the “effect on mean arterial pressure (MAP)” value (wt and KCa3.1−/− mice; KCa3.1−/− mice, 10 and 30 mg/kg i.p.) was “no blood pressure lowering effects”. For the same compound, the “effect on heart rate” value (wt and KCa3.1−/− mice; any of the groups) was “did not alter heart rate”, the “effect on mean arterial pressure (MAP)” value (wt and KCa3.1−/− mice; normotensive wt mice, 1 mg/kg i.p.) was “ineffective” and the “lowering of mean arterial pressure (MAP)” value (wt and KCa3.1−/− mice; normotensive wt mice, 10 mg/kg i.p.) was 4 mmHg. For the same compound, the “lowering of mean arterial pressure (MAP)” value (wt and KCa3.1−/− mice; normotensive wt mice, 30 mg/kg i.p.) was 6 mmHg, the “MAP over 24 h” value (wt and KCa3.1−/− mice; wt mice, 1 mg/kg i.p.) was 99.0 ± 2.0 mmHg and the “MAP over 24 h” value (wt and KCa3.1−/− mice; wt mice, 10 mg/kg i.p.) was 95.8 ± 1.3 mmHg. The “MAP over 24 h” value (wt and KCa3.1−/− mice; wt mice, 30 mg/kg i.p.) was 94.1 ± 1.3 mmHg, the MAP ([1]; Ang-II hypertensive wt mice, mean ± SEM) was 120 ± 4 mmHg and the “lowering of mean arterial pressure (MAP)” value ([1]; angiotensin-II-induced hypertension, wt mice) was 12 mmHg. For the same compound, the “protection from seizures, 6 Hz minimal electroshock model” value (mice [2]) was “effectively protect mice from seizures”, the “Kv11.1 (HERG) block at 25 μM” value (Kv11.1 (HERG)) was “No effect at 25 μM” and the “effect on KCa1.1 current at 25 μM” value (hKCa1.1) was “No effect at 25 μM”. For the same compound, the “protection from seizures, maximal electroshock (MES) model” value (mice [3]) was “effectively protect mice from seizures”, the Tmax (Pharmacokinetics in rats; male, Sprague-Dawley, plasma, ip, 30 mg/kg) was 2 h and the concentration at 1 h (Pharmacokinetics in rats; [6]) was 5000 nM. It also gave a concentration at 24 h (Pharmacokinetics in rats; [6]) of 2500 nM, a concentration at 48 h (Pharmacokinetics in rats; [6]) of 2000 nM and a concentration at 80 h (Pharmacokinetics in rats; [6]) of 2000 nM. The “peak total plasma concentration” value (Pharmacokinetics in rats; i.p. 10 mg/kg) was 25 µM, the “plasma concentrations higher than tissue concentrations” value (Pharmacokinetics in rats; i.p. 10 mg/kg, 2 h (plasma peak)) was 4–8 fold and the “peak total plasma concentration” value (Pharmacokinetics in rats; i.p. 30 mg/kg) was 37 µM. The “total plasma concentration, peak at 3 min” value (Pharmacokinetics in rats; i.v. 10 mg/kg, 3 min) was 30 µM, the “Kv4.2 block at 25 μM” value (rKv4.2) was “No effect at 25 μM” and the cytotoxicity (Jurkat E61 and MEL cells) was “not cytotoxic”. For the same compound, the “unbound (free) fraction” value ([4]; rat plasma spiked with 10 μM) was 61 ± 1.7% and 61%, the fraction unbound at 15 min, 10 μM ([4]; rat, plasma) was 0.61 and the “Kv1.1 block at 25 μM” value (mKv1.1) was “No effect at 25 μM”. The “Kv1.3 block at 25 μM” value (mKv1.3) was 20 ± 5% block at 25 μM, the “K2P2.1 (TREK-1) effect at 25 μM” value (K2P2.1 (TREK-1)) was “No effect at 25 μM” and the “effect on carotid artery diameter in the absence of acetylcholine” value (murine carotid artery; 0.01 to 1 μM) was “did not dilate or contract”. For the same compound, the “potentiation of residual KCa2.3-mediated EDHF-type response” value (murine carotid artery; carotid arteries of KCa3.1−/− mice, 0.1 to 1 μM) was “did not potentiate”, the “increase in EDHF-type dilation at 1 μM” value (murine carotid artery; wt carotid artery, 100 nM acetylcholine, 1 μM) was “two- to three-fold increase in dilation” and the logP (logP) was 2.2. For the same compound, the “Cav1.2 block at 25 μM” value (Cav1.2) was “No effect at 25 μM”, the “Kv1.5 block at 25 μM” value (hKv1.5) was 20 ± 5% block at 25 μM and the “Nav1.4 block at 25 μM” value (hNav1.4) was 20 ± 5 % block at 25 μM. For the same compound, the “effect in NMDA receptor binding assay at 25 μM” value [5] was “no effect”.
